{
  "source": "patent US5214063A",
  "about": "“4-aminobutyric acid compounds, compositions and methods of use for treating disorders related to a dysfunction of GABAB receptors” (Adir et Compagnie, priority 1990, dated 1993)",
  "system": "hippocampal preparations (CA3 pyramidal cells)",
  "experiment": "Inhibition of excitation activity induced by convulsants (bicucullin) in hippocampal preparations",
  "assay_type": "cell-based",
  "conditions": "10 min; excitation induced by bicucullin (50 μM), compound perfused 10 minutes, adult female rat hippocampal preparations; read-out: inhibiting concentration 50 (IC50)",
  "description": "Hippocampal preparations were prepared from the brains of sacrificed adult female rats. Transverse sections were placed in a preservative medium. After 1 hour and 30 minutes' incubation, the isolated preparations were placed under registration, perfused with a saline solution and oxygenated. Spontaneous potentials appear which are associated with CA3 pyramidal cells. Excitation is induced by the addition of bicucullin (50 μM).\nThe compounds of the invention, at various concentrations, or baclofen are then added.\nThe baclofen or the compounds of the invention are perfused for periods of 10 minutes. The excitation rate is calculated during the four minutes preceding the perfusion of baclofen or the compounds of the invention and during the last four minutes of the perfusion of the products to be studied.\nThe inhibition is expressed as percentage excitation in relation to the initial rate, which permits the determination of an inhibiting concentration 50 (IC50). The compounds of the invention have an IC50 of from 5 to 20 μM; baclofen in this test has an IC50 of approximately 50 μM.",
  "data": [
    {"smiles": "NCC(CC(=O)O)c1ccc(Cl)cc1", "note": "(stereo not shown) [baclofen, 4-amino-3-(4-chlorophenyl)butyric acid]", "values": [
      {"measurement": "IC50", "result": "~50", "unit": "µM"}
    ]}
  ]
}
